Experimental data published in US20250269043A1, “TARGETED BIFUNCTIONAL DEGRADERS” (YALE UNIVERSITY, priority 2019, published 2025).

Experiments:
HepG2 cells [1] = experiment: DNP-GN3-mediated endocytosis of fluorescently labeled α-DNP antibody by adherent HepG2 cells; format: cell-based, human; details: sodium azide and 2-deoxyglucose as combined treatment; FIG. 89
Method: It was next explored whether DNP-GN3 mediates the endocytosis of fluorescently labeled α-DNP antibody.
To explore the cellular mechanism of antibody uptake, cells were treated with chemical inhibitors of several endocytic pathways (FIG. 89).

HepG2 cells [2] = experiment: DNP-AF3-mediated α-DNP antibody endocytosis by HepG2 cells (flow cytometry); format: cell-based, human; details: 40 nM DNP-AF3, 100 nM antibody; for effect of endocytic pathway inhibitors on DNP-AF3-mediated α-DNP antibody endocytosis: FIG. 106; for effect of competitive binders on DNP-AF3-mediated α-DNP antibody endocytosis: ASF 2.07 μM, AF and GalNAc 1.25 mM, FIG. 105
Method: The intracellular fluorescence of cells that were incubated at 37° C. with both fluorescently labeled α-DNP antibody and DNP-AF3 for a given amount of time was examined. Cells were then washed, removed from the plate with trypsin, and subjected to flow cytometry.
It was then determined if reagents which inhibit ternary complex formation inhibit endocytosis mediated by DNP-AF3.
Next, whether inhibitors of specific endocytic pathways inhibited α-DNP antibody endocytosis was determined (FIG. 106).

HepG2 cells [3] = experiment: MIF-GN3-mediated endocytosis of Alexa 488-labeled human MIF by HepG2 cells; details: for effect of endocytic pathway inhibitors on MIF-GN3-mediated MIF endocytosis: MIF 100 nM, MIF-GN3 200 nM, FIG. 132; for toxicity of endocytosis inhibitors to cells: HepG2 cells in the presence of MIF and MIF-GN3
Method: Human MIF protein was fluorescently labeled with Alexa 488 NHS ester, then incubated with HepG2 cells in the presence of varying levels of MIF-GN3.
The ability of MIF-GN3 to mediate MIF endocytosis over a wide range of target protein concentrations was assessed.
Next, inhibitors of various endocytic pathways were utilized to determine if MIF-GN3 mediates MIF endocytosis in a manner consistent with ASGPR (FIG. 132).

human MIF [4] = biological target: T1, human MIF (Homo sapiens, UniProt P14174); experiment: Depletion of human MIF from cell culture supernatant (sandwich ELISA); format: cell-based; details: 24 hours; FIG. 128B
T1 sequence (P14174 2-115 limits assumed): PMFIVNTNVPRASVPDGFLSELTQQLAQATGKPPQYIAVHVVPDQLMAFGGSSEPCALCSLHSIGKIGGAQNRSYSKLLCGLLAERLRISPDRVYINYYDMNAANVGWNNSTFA
Method: The ability of bifunctional MIF-binding molecules to mediate the depletion of human MIF from cell culture was investigated. In these assays, human MIF was present at a concentration of 100 nM, and a sandwich ELISA assay was utilized to measure the concentration of human MIF remaining in the cell culture supernatant. The closely related bifunctional molecules MIF-GN3, MIF-PEG2-GN3, and MIF-PEG4-GN3 were used, as well as the structurally dissimilar molecule MIF-NVS-PEG3-GN3. […] Based on the ease of its synthesis and its efficacy in this experiment, MIF-GN3 was utilized for further studies. It was next investigated whether the MIF inhibitor 3w mediates MIF depletion from cell culture supernatant. […] When cells were treated with 3w, no depletion of exogenous MIF protein was observed after 24 hours (FIG. 128B).
Bifunctional molecules containing optimized ASGPR-binding motifs are also capable of mediating MIF depletion from cell culture supernatant (FIG. 129). The MIF-binding molecule MIF-AF1, which contains only a single ASGPR-binding sugar, was not effective at mediating depletion of MIF from supernatant at any concentration tested. It is hypothesized that this is due to the compound's low predicted affinity for ASGPR (μM range). […] At a concentration of either 200 nM or 1 μM, MIF-AF2 mediated nearly 100%/o depletion of MLF from the cell culture supernatant after 48 hours. […] In contrast to these molecules, which utilize optimized synthetic ASGPR ligands, the GalNAc-based molecule MIF-GN3 mediated only 67.0% and 56.0% removal of MIF from supernatant after 48 hours at concentrations of 1 μM and 200 nM, respectively. […] At a concentration of 40 nM (4.0 pmol of molecule), MIF-AF3 mediates the removal of 83.2% of MIF present in the cell culture supernatant, or 8.32 pmol of human MIF protein. Therefore, it was concluded that under the conditions of this experiment, MIF-AF3 mediates the depletion of 2.08 molar equivalents of MIF protein.

PC3 cells = experiment: PC3 human prostate cancer cell tumor model in mice; format: in vivo; details: MIF-GN3 at 10 mpk; control arms DNP-GN3 and 3w; FIG. 138
Method: The ability of MIF-GN3 to mediate the depletion of MIF in a therapeutically relevant disease model was investigated. […] An experiment was conducted to determine whether the bifunctional molecule MIF-GN3 can deplete sufficient human MIF from serum to slow PC3 tumor growth. Mice were injected with an aliquot of PC3 cells, and the size of the resultant tumors as well as the levels of human MIF in serum were monitored over five weeks. […] Five weeks after the initial PC3 cell injection, the first of the mice reached maximal tumor size ([…]) and was sacrificed (FIG. 138). […] The decrease in human MIF levels mediated by MIF-GN3 is consistent with a mechanism of action in which MIF-GN3 mediates the depletion and degradation of circulating MIF protein. While the α-MIF antibody would not necessarily be expected to decrease the levels of human MIF, it is possible that the antibody mediates MIF neutralization in a manner which masks its signal as determined by ELISA. Alternatively, the α-MIF antibody may mediate depletion or degradation of huMIF by some endocytic mechanism. Another possible explanation is that the α-MIF antibody decrease serum levels of active human MIF to such an extent at early time points that PC3 cells proliferate much more slowly, and therefore fewer cells are actively secreting human MIF.
Mice were sacrificed when their tumor volumes reached 1000 mm^3. […] At this same time point, less than 25% of the mice in any other arm had survived.

human MIF [5] = biological target: T1, human MIF; experiment: Depletion of injected recombinant human MIF from serum in mice; format: in vivo; set-up: injected into mice; details: control molecules injected along with human MIF; FIG. 136
Method: In vivo human MIF depletion experiments were undertaken to determine whether MIF-GN3 can mediate the depletion of injected recombinant human MIF from serum in mice. Mice were injected with five μg of the human MIF protein. In this experiment, one group of mice was also injected with a single 10 mpk dose of MLF-GN3 along with human MIF protein. It was observed that after four hours, the average level of human MIF in serum in the PBS-treated mice was 1.76 ng/mL (FIG. 134). In mice treated with 10 mpk MIF-GN3, however, the concentration of human MIF in serum was 0.68 ng/mL. One day after the initial injection, human MIF levels had reached background levels for both conditions. […] It was hypothesized that, due to the short half-life of human MIF in serum, investigating human MIF levels at earlier time points may be more informative.
Next, an experiment was performed to determine whether MIF-GN3 could enhance MIF clearance at time points earlier than four hours. Mice were coinjected with recombinant human MIF and 10 mpk MIF-GN3 via either i.p. or i.v. routes. For the PBS control arms, human MIF was injected with PBS. It was observed that in the absence of MIF-GN3, there was a spike in huMIF levels in circulation after 30 minutes (FIG. 135). In the presence of MIF-GN3, however, levels of MIF protein remained low at 30 minutes and no spike in its concentration was observed. By two hours, the levels of human MIF in circulation decreased to background levels.
In a further experiment, whether an inhibitor of the MIF protein (3w) is able to mediate the protein's depletion from serum was determined. A bifunctional molecule that mediates the depletion of α-DNP antibody from serum was also assayed as a negative control. Neither of these molecules was expected to mediate the formation of a ternary complex between human MIF protein and ASGPR.

α-DNP antibody = experiment: In vivo depletion of α-DNP antibody from serum in mice (ELISA); details: FIG. 95
Method: FIG. 94 illustrates that serum levels of α-DNP antibody decrease more rapidly following repeated treatment with DNP-GN3. Serum antibody levels were measured using an ELISA assay. Each experimental group contained three mice. Statistical differences in experiments involving in vivo depletion of α-DNP antibody were assessed by repeated measures two-way ANOVA with Tukey's tests for post-hoc comparison of simple effects between each of the treatment groups and PBS.
Single doses of DNP-GN3 were also found to be efficacious at mediating α-DNP antibody depletion, albeit less effectively than daily dosing (FIG. 96). […] Therefore, it was concluded that DNP-GN3 is able to mediate the depletion of a monoclonal antibody from serum, and functions across a wide range of target protein concentrations and dosing regimens.
DNP-GN3 was also found to be efficacious in depleting polyclonal α-DNP antibody from serum collected from mice immunized with DNP-keyhole limpet haemocyanin (KLH) (FIG. 97). […] Thus, the small molecule DNP-GN3 is not restricted in function to only monoclonal mouse antibodies, but is also effective at removing polyclonal α-DNP antibodies from circulation in mice.

[6] = biological target: human IgG (Alexa 488-labeled) (human); experiment: cell-based or functional assay

Compound | effect of endocytic pathway inhibitors on intracellular fluorescence (DNP-GN3-mediated uptake) (HepG2 cells [1]) | effect of endocytic pathway inhibitors on DNP-AF3-mediated α-DNP antibody endocytosis (HepG2 cells [2]) | effect of endocytic pathway inhibitors on MIF-GN3-mediated MIF endocytosis (HepG2 cells [3]) | other results
O=CC[C@@H](O)[C@H](O)[C@H](O)CO [2-deoxyglucose] | significantly decreased | significant decrease | decreased significantly | –
Oc1ccc(-n2cc(-c3ccc4cc(OCCOCCN5CCOCC5)ccc4n3)nn2)cc1F [Compound 3w] | – | – | – | depletion of exogenous MIF protein from cell culture supernatant (human MIF [4]): no depletion; tumor growth (PC3 cells): not found to decrease tumor growth; human MIF concentration in serum compared to the PBS control (human MIF [5]): no significant decreases
C=C1[C@@H](C)[C@H]2[C@H](Cc3ccccc3)NC(=O)[C@]23[C@H](OC(C)=O)/C=C/[C@@](C)(O)C(=O)[C@@H](C)C/C=C/[C@H]3[C@@H]1O [CytD] | – | non-significant decrease | – | –
O=C(CCOCC(COCCC(=O)NCCOCCOCCO)(COCCC(=O)NCCOCCOCCO)NC(=O)CNC(=O)COCCOCCOCCNc1ccc([N+](=O)[O-])cc1[N+](=O)[O-])NCCOCCOCCO [DNP-OH3] | – | – | – | antibody depletion from serum after negative control compound (α-DNP antibody): No accelerated antibody depletion; effect of competitive binders on DNP-AF3-mediated α-DNP antibody endocytosis (HepG2 cells [2]): decreased to near-background levels
CC(=O)N[C@H]1C(O)O[C@H](CO)[C@H](O)[C@@H]1O (stereo partly shown) [GalNAc, N-acetylgalactosamine] | – | – | – | effect of competitive binders on DNP-AF3-mediated α-DNP antibody endocytosis (HepG2 cells [2]): significantly decreased
N=C(N)NC(=O)c1nc(Cl)c(N)nc1N [amiloride, Amiloride] | did not significantly decrease | decrease in cellular fluorescence | did not impact cellular fluorescence significantly | –
C=C1[C@@H](C)[C@H]2[C@H](Cc3ccccc3)NC(=O)[C@]23[C@H](OC(C)=O)/C=C/[C@@](C)(O)C(=O)[C@@H](C)C/C=C/[C@H]3[C@@H]1O [cytochalasin D] | did not significantly decrease | – | – | toxicity of endocytosis inhibitors to cells (HepG2 cells [3]): toxic
O=c1c(-c2ccc(O)cc2)coc2cc(O)cc(O)c12 [genistein, Genistein] | – | did not significantly decrease | – | toxicity of endocytosis inhibitors to cells (HepG2 cells [3]): toxic
COc1ccc2c(c1)c(CC(=O)O)c(C)n2C(=O)c1ccc(Cl)cc1 [indomethacin, Indomethacin] | – | did not significantly decrease | did not decrease | –
CC[C@@]1([C@@H]2O[C@@H]([C@H]3O[C@@](O)(CO)[C@H](C)C[C@@H]3C)C[C@@H]2C)CC[C@H]([C@]2(C)CC[C@]3(C[C@H](O)[C@@H](C)[C@@H]([C@@H](C)[C@@H](OC)[C@H](C)C(=O)O)O3)O2)O1 [monensin, Monensin] | significantly decreased | – | near background levels | –
C[C@@H]1[C@H](O)[C@@H](C)/C=C/C=C/CC/C=C/C=C/C=C/C=C/C(O[C@H]2O[C@H](C)[C@@H](O)[C@H](N)[C@@H]2O)CC2O[C@](O)(CC(O)C(O)CCC(O)CC(O)CC(O)CC(=O)O[C@H]1C)CC(O)C2C(=O)O (stereo partly shown) [nystatin, Nystatin] | did not significantly decrease | did not significantly decrease | did not decrease | –
OC[C@H]1O[C@@](CO)(O[C@H]2O[C@H](CO)[C@@H](O)[C@H](O)[C@H]2O)[C@@H](O)[C@@H]1O [sucrose] | significantly decreased | – | near background levels | –
FcIII-BCN-GN3 (peptide) | – | – | – | uptake of human IgG by HepG2 cells; most effective concentration of FcIII-BCN-GN3 [6]: 1 µM
FcIII-GN3 (oxidized cyclized form) (peptide) | – | – | – | uptake of Alexa 488-labeled human IgG by HepG2 cells; concentration of FcIII-GN3 giving maximal uptake [6]: 200 nM
